From patent publication US8754079B2, “Cycloalkyl containing thienopyrimidines for pharmaceutical compositions” (Boehringer Ingelheim International GmbH, priority 2010, dated 2014)

Each molecule was assayed against T1, MNK2 (Homo sapiens, UniProt Q9HBH9) (assay: Mnk2a in vitro kinase assay (indirect fluorescence polarization)). Settings: pre-activated GST-Mnk2a 2.5 nM, 20 μM ATP, 30 μM substrate peptide.
T1 construct: the open reading frames of human Mnk1 and Mnk2a were amplified from cDNA; made in house; host or cells: E. coli BL21
T1 sequence (Q9HBH9 whole entry): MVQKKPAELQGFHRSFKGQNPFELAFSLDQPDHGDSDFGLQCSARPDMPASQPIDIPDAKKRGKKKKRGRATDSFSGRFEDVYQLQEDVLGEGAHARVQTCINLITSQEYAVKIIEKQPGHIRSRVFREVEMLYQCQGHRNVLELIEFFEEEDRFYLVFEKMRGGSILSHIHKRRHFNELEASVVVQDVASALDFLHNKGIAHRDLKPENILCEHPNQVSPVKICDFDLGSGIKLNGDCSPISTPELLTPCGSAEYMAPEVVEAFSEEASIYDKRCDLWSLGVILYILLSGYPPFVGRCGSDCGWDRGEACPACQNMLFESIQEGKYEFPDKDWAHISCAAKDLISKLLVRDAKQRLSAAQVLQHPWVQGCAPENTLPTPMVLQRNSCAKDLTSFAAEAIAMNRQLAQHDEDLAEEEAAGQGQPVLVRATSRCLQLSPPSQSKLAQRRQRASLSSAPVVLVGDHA
Format: biochemical
Experimental: Inhibitory potency of compounds against Mnk1, Mnk2a and other kinases was assessed with assays based on a format known to those skilled in the art as the indirect (competitive) fluorescence polarization. The assay detection system comprises a small fluorophore-labeled phospho-peptide (termed ligand) bound to a phospho-specific antibody. The product generated by the kinase reaction competes with the ligand for antibody binding. Based on the larger molecular volume of the bound ligand, which results in a lower rotation rate in solution, its emitted light has a higher degree of polarization than the one from the free ligand.
Example 2a. Mnk1 and Mnk2a in vitro kinase assay
As a source of enzyme, human Mnk1 and human Mnk2a were expressed as GST fusion proteins in E. coli, purified to >80% homogeneity by glutathione affinity chromatography and activated in vitro with pre-activated ERK2. In brief, the open reading frames of human Mnk1 and Mnk2a were amplified from cDNA using the forward/reverse primer pairs
(utilized restriction sites underlined), respectively, and cloned into the BamHI and SalI sites of the vector pGEX-4T1 (Amersham, Sweden, cat. no. 27-4580-01). These constructs allow prokaryotic expression of Mnk1 or Mnk2a as fusion protein with a N-terminal glutathione S-transferase (GST) tag, referred to as GST-Mnk1 or GSTMnk2a. The following expression and purification procedure was identical for GSTMnk1 and GST-Mnk2a, referring in general to GST-Mnk, when not distinguishing between the two isoforms. Expression of GST-Mnk was in E. coli BL21 (Merck Biosciences, Germany, cat. no. 69449). Cells were grown in LB-Bouillon (Merck, Germany, cat. no. 1.10285) supplemented with 100 μg/ml ampicillin (Sigma, Germany, cat. no. A9518) at 37° C. When the culture had reached a density corresponding to an A600 of 0.8, an equal volume of ice cold LB/ampicillin was added, the culture transferred to 25° C. and induced for 4 h with 1 mM isopropyl thiogalactoside (IPTG, Roth, Germany, cat. no. 2316.4). Cells harvested by centrifugation were resuspended in 10 ml lysis buffer (50 mM tris(hydroxymethyl)aminomethane hydrochloride (Tris/HCl, Sigma, Germany, cat. no. T5941) pH 7.5, 300 mM sodium chloride (NaCl, Sigma, Germany, cat. no. S7653), 5% (w/v) glycerol (Sigma, Germany, cat. no. G5516), 3 mM DTT dithiotreitol (DTT, Sigma, Germany, cat. no. D9779)) per gram wet weight cell pellet. Lysates were prepared by disruption of cells with a sonifier and subsequent clearing by centrifugation at 38000 g for 45 min at 4° C.
The lysate was applied to a GSTPrep FF 16/10 column (Amersham, Sweden, cat. no. 17-5234-01) equilibrated with lysis buffer. Removal of unbound material was with 3 column volumes (CV) lysis buffer. Elution was with 2 CV of elution buffer (50 mM Tris/HCl pH 7.5, 300 mM NaCl, 5% (w/v) glycerol, 20 mM glutathione (Sigma, Germany, cat. no. G4251)). Peak fractions were pooled and the protein transferred into storage buffer (50 mM Tris/HCl pH 7.5, 200 mM NaCl, 0.1 mM ethylene glycolbis(2-aminoethylether)-N,N,N′,N′-tetraacetic acid (EGTA, Aldrich, Germany, cat. no. 23, 453-2), 1 mM DTT, 10% (w/v) glycerol, 0.5 M sucrose (Sigma, Germany, cat. no. S0389) by gel filtration on a PD10 desalting column (Amersham, Sweden, cat. no. 17-0851-01). Aliquots were shock frozen in liquid nitrogen and stored at −80° C.
Activation of Mnk1 and Mnk2a was at a concentration of 2.5 μM of either purified GST-Mnk1 or GST-Mnk2a by incubation with 150 nM pre-activated NHis-ERK2 (see ERK2 assay for preparation) and 50 μM adenosine triphosphate (ATP, Sigma, cat. no. A2699) in a buffer comprising 20 mM N-(2-hydroxyethyl)piperazine-N′-(2-ethanesulfonic acid) (HEPES, Fluka, Germany, cat. no 54459)/potassium hydroxide (KOH, Roth, Germany, cat. no 6751.1) pH 7.4, 10 mM magnesium chloride (MgCl2, Sigma, Germany, cat. no. M2670), 0.25 mM DTT, 0.05% (w/v) polyoxyethylene 20 stearylether (Brij 78, Sigma, Germany, cat. no. P4019) (HMDB buffer) for 45 min at 30° C. […]

| IC50 [µM] | Compound |
| --- | --- |
| 0.031 | Cc1c(C(N)=O)sc2ncnc(Nc3ccc(F)cc3OC3CCC4(CC3)OCCO4)c12 [Example 19, 4-(2-(1,4-Dioxaspiro[4.5]decan-8-yloxy)-4-fluorophenylamino)-5-methylthieno[2,3-d]pyrimidine-6-carboxamide] |
| 0.096 | COC1CCCC(Oc2ncccc2Nc2ncnc3sc(C(=O)NC4CC4N)c(C)c23)C1 (mixture of isomers) [Example 132] |
| 9.7 | Cc1c(C(N)=O)sc2ncnc(Nc3ccc(F)cc3O[C@H]3CC[C@@H](N4CCOCC4)CC3)c12 [Example 27, 4-(4-Fluoro-2-(cis-4-morpholinocyclohexyloxy)phenylamino)-5-methylthieno[2,3-d]pyrimidine-6-carboxamide] |
| 0.031 | Cc1c(C(N)=O)sc2ncnc(Nc3ccc(F)cc3OC3CCC(=O)CC3)c12 [Example 21, 4-(4-Fluoro-2-(4-oxocyclohexyloxy)phenylamino)-5-methylthieno[2,3-d]pyrimidine-6-carboxamide] |
| 0.009 | CO[C@H]1CC[C@H](Oc2cc(F)ccc2Nc2ncnc3sc(C(=O)NCCCN4C(=O)CCC4=O)c(C)c23)CC1 [Example 280] |
| 0.043 | Cc1c(C(=O)NCC(C)O)sc2ncnc(Nc3ccc(F)cc3OC3CCCC(O)C3)c12 (mixture of isomers) [Example 73] |
| 0.013 | CO[C@H]1CCC[C@@H](Oc2ncccc2Nc2ncnc3sc(C(=O)NCC#CCN)c(C)c23)C1 (racemic) [Example 112] |
| 0.038 | COC1CCCC(Oc2cc(F)ccc2Nc2ncnc3sc(C(=O)NCCCN4CCCC4)c(C)c23)C1 (centres unmarked) [Example 87] |
| 0.021 | COC1CCC(Oc2cc(F)ccc2Nc2ncnc3sc(C(=O)NCCCCO)c(C)c23)CC1 (centres unmarked) [Example 181] |
| 0.041 | CO[C@H]1CCC[C@@H](Oc2ncccc2Nc2ncnc3sc(C(=O)N[C@H]4CC[C@H](O)CC4)c(C)c23)C1 (racemic) [Example 121] |
| 0.007 | CC(=O)N[C@H]1CC[C@H](Oc2cc(F)ccc2Nc2ncnc3sc(C(=O)NCCCN(C)C)c(C)c23)CC1 [Example 6] |
| 0.012 | CCN(CC)CCCNC(=O)c1sc2ncnc(Nc3ccc(F)cc3O[C@H]3CC[C@H](OC)CC3)c2c1C [Example 276] |
| 0.065 | COCCN(C)[C@H]1CC[C@H](Oc2cc(F)ccc2Nc2ncnc3sc(C(N)=O)c(C)c23)CC1 [Example 22, 4-(4-Fluoro-2-(trans-4-((2-methoxyethyl)(methyl)amino)cyclohexyloxy)phenylamino)-5-methylthieno[2,3-d]pyrimidine-6-carboxamide] |
| 0.053 | COC1CCCC(Oc2cc(F)ccc2Nc2ncnc3sc(C(=O)NCC4CNCCO4)c(C)c23)C1 (mixture of isomers) [Example 83] |
| 0.048 | CO[C@@H]1CCC[C@@H](Oc2ncccc2Nc2ncnc3sc(C(=O)NCC#CCN(C)C)c(C)c23)C1 (racemic) [Example 138] |
| 0.021 | CO[C@H]1CCC[C@@H](Oc2cc(F)ccc2Nc2ncnc3sc(C(=O)NCCO)c(C)c23)C1 (racemic) [Example 101] |

| IC50 [µM] | Compound |
| --- | --- |
| 0.009 | COC(=O)c1sc2ncnc(Nc3cccnc3O[C@@H]3CCC[C@H](OC)C3)c2c1C (racemic) [Example 110.1, Racemic 4-[2-((cis)-3-Methoxy-cyclohexyloxy)-pyridin-3-ylamino]-5-methyl-thieno[2,3-d]pyrimidine-6-carboxylic acid methylester] |
| 0.019 | Cc1c(C(=O)NCCCN2CCCC2)sc2ncnc(Nc3ccc(F)cc3O[C@H]3C[C@@H]4OCO[C@@H]4C3)c12 [Example 291, 4-[4-Fluoro-2-(tetrahydro-cyclopenta[1,3]dioxol-5-yloxy)phenylamino]-5-methyl-thieno[2,3-d]pyrimidine-6-carboxylic acid (3-pyrrolidin-1-yl-propyl)-amide] |
| 0.041 | Cc1c(C(=O)NCCCN(C)C)sc2ncnc(Nc3ccc(F)cc3O[C@@H]3CC[C@@H](O)[C@H]3O)c12 (relative stereo) [Example 222] |
| 0.022 | CO[C@H]1CCC[C@@H](Oc2cc(F)ccc2Nc2ncnc3sc(C(=O)NCCCN4CCCC4)c(C)c23)C1 (racemic) [Example 106] |
| 0.014 | CC(=O)N[C@H]1CC[C@H](Oc2cc(F)ccc2Nc2ncnc3sc(C(=O)NCCO)c(C)c23)C1 [Example 231, 4-[2-((1S,3S)-3-Acetylamino-cyclopentyloxy)-4-fluoro-phenylamino]-5-methyl-thieno[2,3-d]pyrimidine-6-carboxylic acid (2-hydroxy-ethyl)-amide] |
| 0.089 | COC1CCCC(Oc2ncccc2Nc2ncnc3sc(C(=O)NCC4COCCN4)c(C)c23)C1 (mixture of isomers) [Example 141] |
| 0.034 | Cc1c(C(=O)N[C@H]2CC[C@H](O)CC2)sc2ncnc(Nc3ccc(F)cc3O[C@@H]3CCC[C@@H](O)C3)c12 (racemic) [Example 69] |
| 0.008 | CO[C@H]1CCC[C@@H](Oc2cc(F)ccc2Nc2ncnc3sc(C(N)=O)c(C)c23)C1 (racemic) [Example 89, Racemic 4-[4-Fluoro-2-((cis)-3-methoxy-cyclohexyloxy)-phenylamino]-5-methyl-thieno[2,3-d]pyrimidine-6-carboxylic acid amide] |
| 0.034 | CO[C@H]1CCC[C@@H](Oc2cc(F)ccc2Nc2ncnc3sc(C(=O)N[C@H]4CC[C@H](O)CC4)c(C)c23)C1 (racemic) [Example 100] |
| 0.01 | Cc1c(C(N)=O)sc2ncnc(Nc3ccc(F)cc3O[C@@H]3CC[C@@H](O)[C@H]3O)c12 (relative stereo) [Example 221] |
| 0.009 | Cc1c(C(=O)NCCO)sc2ncnc(Nc3ccc(F)cc3O[C@H]3CC[C@H](O)CC3)c12 [Example 155] |
| 0.006 | Cc1c(C(N)=O)sc2ncnc(Nc3ccc(F)cc3O[C@@H]3CCC[C@@H](O)C3)c12 (racemic) [Example 58, Racemic 4-[4-Fluoro-2-((trans)-3-hydroxy-cyclohexyloxy)-phenylamino]-5-methyl-thieno[2,3-d]pyrimidine-6-carboxylic acid amide] |
| 0.005 | Cc1c(C(=O)NC(C)C)sc2ncnc(Nc3cccnc3O[C@H]3CC[C@H](N)CC3)c12 [Example 287] |
| 5.9 | Cc1c(C(N)=O)sc2ncnc(Nc3ccc(F)cc3O[C@H]3CC[C@@H](N(C)S(C)(=O)=O)CC3)c12 [Example 9, 4-(4-Fluoro-2-(cis-4-(N-methylmethylsulfonamido)cyclohexyloxy)phenylamino)-5-methylthieno[2,3-d]pyrimidine-6-carboxamide] |
| 0.006 | Cc1c(C(N)=O)sc2ncnc(Nc3cccnc3O[C@H]3CC[C@H](N)CC3)c12 [Example 283, 4-[2-(4-Amino-cyclohexyloxy)-pyridin-3-ylamino]-5-methyl-thieno[2,3-d]pyrimidine-6-carboxylic acid amide] |

| Compound | IC50 [µM] |
| --- | --- |
| CC(=O)N[C@H]1C[C@H](Oc2cc(F)ccc2Nc2ncnc3sc(C(=O)N[C@H]4C[C@@H]4N)c(C)c23)C1 [Example 246, 4-[2-(trans-3-Acetylamino-cyclobutoxy)-4-fluoro-phenylamino]-5-methyl-thieno[2,3-d]pyrimidine-6-carboxylic acid (2-amino-cyclopropyl)-amide] | 0.065 |
